Among the data in PubChem BioAssay AID2060503 (Molecular Pharmacology Branch, DTP, NCI, 2025) are IC50 and viability, T/C values, retold here.

The subject of this assay is 817829-284-R-J1-PDC complex spheroids, viability. As to the kind of experiment: Anticancer human tumor 817829-284-R-J1-PDC patient-derived colon adenocarcinoma cell line growth inhibition [GQUAD]. As to conditions: for viability, T/C: stronger effect = lower value. An excerpt: DNA G-quadruplex Stabilizer Agents in Combinations in Complex Spheroids
A high-throughput screen of multi-cell type tumor spheroids was designed to identify active combinations of DNA G-quadruplex stabilizer agents and targeted small molecules. Complex spheroids include a stromal component modeled by human endothelial cells (HUVEC) and fibroblasts modeled by human mesenchymal stem cells (MSCs). The concentration ranges selected for each drug and investigational agent were based upon clinically achievable concentrations if the clinical Cmax of the agent was known.
Compounds. The drugs and investigational agents: pidnarulex (CX-5461; NSC782164), APTO-253 (NSC789042), BRACO-19 (NSC847499), peposertib (NSC802822), ceralasertib (NSC780249), elimusertib (NSC800525), camonsertib (NSC841442), AZD-1390 (NSC803789), olaparib (NSC753686), talazoparib (NSC767125), ART-558 (NSC835418), sotorasib (NSC818433), MRTX-1133 (NSC836407), SN-38 (NSC673596), topotecan (NSC609699), etoposide (NSC141540), doxorubicin (NSC123127), gemcitabine (NSC613327), 5-fluorouracil (NSC19893), paclitaxel (NSC125973), vemurafenib (NSC761431), panobinostat (NSC761190), R-306465 (JNJ-16241199; NSC773264), adavosertib (NSC754352), TP-3654 (NSC805149), carboplatin (NSC241240), KSQ-4279 (NSC840948), and staurosporine (NSC755774) were obtained from the National Cancer Institute (NCI) Developmental Therapeutics Program Chemical Repository (34). The FDA-approved anticancer drug set is available from the NCI Developmental Therapeutics Program. […] The stock solutions were prepared in dimethyl sulfoxide (DMSO, Sigma-Aldrich, St. Louis, MO, cat. D2650) at 800-fold the tested concentration and stored at -70 degrees C prior to their use. All drugs and investigational agents were tested over a range starting from a high concentration at or near the clinical Cmax and decreasing in half-log increments. If the clinical Cmax for an agent had not been determined, the highest concentration tested was 10 microM.
2.3 Cell Culture. All cells were maintained in an incubator at 37 degrees C and 5% CO2 with 95% humidity. The PDC lines were cultured according to standard operating procedures established by the NCI PDMR. All PDCs were thawed and cultured in Matrigel-coated flasks prepared with a working solution of 1X Ham's F-12 nutrient mix, without supplementation (Invitrogen, cat. 11765054), 100 U/mL penicillin-streptomycin (Invitrogen, cat. 15140122), and 2.5% Matrigel (Corning Inc., cat. 354248) for the first three passages. The 857933-349-R-J2-PDC line was cultured in 6C/Colon 1B media, which includes advanced DMEM/F-12 (Thermo Fisher Scientific, cat. 12634028), 10 mM HEPES (Thermo Fisher Scientific, cat. 15630080), 1X GlutaMAX supplement (Thermo Fisher Scientific, cat. 35050061), 0.1 mg/mL primocin (InvivoGen, cat. ant-pm-2), 10% defined fetal bovine serum, heat inactivated (HyClone Laboratories Inc., cat. SH30070.03HI), 50% L-WRN conditioned media (ATCC, cat. CRL-3276), 1.25 mM N-Acetyl-L-cysteine (Sigma-Aldrich, cat. A9165), 10 mM nicotinamide (Sigma-Aldrich, cat. N0636), 1X B-27 supplement (Thermo Fisher Scientific, cat. 17504044), 1X N-2 supplement (Thermo Fisher Scientific, cat. 17502048), 10 microM Y-27632 dihydrochloride (Tocris Bioscience, cat. 1254), and 50 ng/mL human EGF recombinant protein (Thermo Fisher Scientific, cat. PHG0311). The 485176-168-R4-J1-PDC line was cultured in Panc media, which includes all 6C/Colon 1B media components plus 100 ng/mL human FGF-10 (Thermo Fisher Scientific, cat. 100-26), 500 nM SB-431542 (Selleckchem, cat. S1067), and gastrin (Tocris, cat. 3006).
[…]

Where “and” joins values, the source holds several entries; their conditions need not be identical. Equal entries are not always repeated.

What is called IC50 is the midpoint of a concentration-inhibition curve. In general, viability, T/C refers to the result in the treated group divided by that in the control group, in per cent.
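Also: spheroids exposed to agents for 7 days before readout.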
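For viability, T/C in this document: percent viability relative to DMSO vehicle control taken as 100%.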

For `CC(=O)O[C@H]1C(=O)[C@@]2(C)[C@H]([C@H](OC(=O)c3ccccc3)[C@]3(O)C[C@H](OC(=O)[C@H](O)[C@@H](NC(=O)c4ccccc4)c4ccccc4)C(C)=C1C3(C)C)[C@]1(OC(C)=O)CO[C@@H]1C[C@@H]2O` + Cc1[nH]c2ccc(F)cc2c1-c1nc2c3cccnc3c3ncccc3c2[nH]1, the IC50 is, setting by setting: (curve of first compound, second compound 0.0316 µM) under 0.0316 µM; (curve of first compound, second compound 0.1 µM) under 0.0316 µM; (curve of first compound, second compound 0.316 µM) under 0.0316 µM; (curve of first compound, second compound 1 µM) under 0.0316 µM; (curve of first compound, second compound 3.16 µM) under 0.0316 µM; (curve of first compound, second compound 10 µM) under 0.0316 µM. Moreover, the viability, T/C (second compound 0.0316 µM, first compound 0.0316 µM) is 7.69%; the viability, T/C (second compound 0.0316 µM, first compound 0.1 µM) is 5%; the viability, T/C (second compound 0.0316 µM, first compound 0.316 µM) was 4.12%; the viability, T/C (second compound 0.0316 µM, first compound 1 µM) was 4.33%; the viability, T/C (second compound 0.0316 µM, first compound 3.16 µM) was 3.69%; the viability, T/C (second compound 0.0316 µM, first compound 10 µM) is 5.32%. Further, the viability, T/C (second compound 0.1 µM, first compound 0.0316 µM) was 6.62%; the viability, T/C (second compound 0.1 µM, first compound 0.1 µM) was 5.4%; the viability, T/C (second compound 0.1 µM, first compound 0.316 µM) is 5.3%; the viability, T/C (second compound 0.1 µM, first compound 1 µM) is 3.81%; the viability, T/C (second compound 0.1 µM, first compound 3.16 µM) was 4.86%; the viability, T/C (second compound 0.1 µM, first compound 10 µM) is 4.62%. Besides, the viability, T/C was 7.16% (second compound 0.316 µM, first compound 0.0316 µM); 5.87% (second compound 0.316 µM, first compound 0.1 µM); 4.46% (second compound 0.316 µM, first compound 0.316 µM); 3.72% (second compound 0.316 µM, first compound 1 µM); 4.25% (second compound 0.316 µM, first compound 3.16 µM); 5.31% (second compound 0.316 µM, first compound 10 µM). Moreover, the viability, T/C reads like this: (second compound 1 µM, first compound 0.0316 µM) 7.59%; (second compound 1 µM, first compound 0.1 µM) 6.66%; (second compound 1 µM, first compound 0.316 µM) 6.33%; (second compound 1 µM, first compound 1 µM) 6.63%; (second compound 1 µM, first compound 3.16 µM) 6.34%; (second compound 1 µM, first compound 10 µM) 6.37%. Also, the viability, T/C by setting is: (second compound 3.16 µM, first compound 0.0316 µM) 3.48%; (second compound 3.16 µM, first compound 0.1 µM) 4.37%; (second compound 3.16 µM, first compound 0.316 µM) 3.76%; (second compound 3.16 µM, first compound 1 µM) 3.37%; (second compound 3.16 µM, first compound 3.16 µM) 3.38%; (second compound 3.16 µM, first compound 10 µM) 3.67%. The viability, T/C runs as follows: (second compound 10 µM, first compound 0.0316 µM) 3.27%; (second compound 10 µM, first compound 0.1 µM) 3.76%; (second compound 10 µM, first compound 0.316 µM) 3.43%; (second compound 10 µM, first compound 1 µM) 2.91%; (second compound 10 µM, first compound 3.16 µM) 3.42%; (second compound 10 µM, first compound 10 µM) 3.04%.

On to `Cc1[nH]c2ccccc2c1CCNCc1ccc(/C=C/C(=O)NO)cc1`, for which the viability, T/C was 110% and 93.9% and 106% (compound 0.000999 µM); 101% and 100% and 86.5% (compound 0.00316 µM); 127% and 124% and 113% (compound 0.00999 µM); 73% and 78.2% and 52.8% (compound 0.0316 µM); 3.77% and 5.53% and 6.09% (compound 0.0999 µM); 0.17% and 0.23% and 0.08% (compound 0.316 µM). For the same compound, the half-maximal inhibitory concentration (IC50) (curve of compound) is 0.0458 µM and 0.0488 µM and 0.0337 µM.

For `CC(C)(O)C1CCC(Nc2ccc3ncc(-c4cccc(C(F)(F)F)c4)n3n2)CC1` (stereo not given), the viability, T/C by setting is: (compound 0.0316 µM) 99.8% and 97.4% and 104%; (compound 0.1 µM) 95.4% and 98.8% and 80.9%; (compound 0.316 µM) 106% and 104% and 101%; (compound 1 µM) 68.3% and 84.7% and 79%; (compound 3.16 µM) 50.6% and 46.8% and 19.7%; (compound 10 µM) 67.2% and 53% and 22.6%. Where the note is “curve of compound”, the IC50 was > 10 µM and 1.78 µM.

For the compound `C=CCn1c(=O)c2cnc(Nc3ccc(N4CCN(C)CC4)cc3)nc2n1-c1cccc(C(C)(C)O)n1`, the viability, T/C (compound 0.0316 µM) was 97.1% and 105% and 99.8%; the viability, T/C (compound 0.1 µM) is 95.4% and 102% and 93.9%; the viability, T/C (compound 0.316 µM) is 37.1% and 32.5% and 33.8%; the viability, T/C (compound 1 µM) was 7.67% and 9.37% and 5.53%; the viability, T/C (compound 3.16 µM) is 6.89% and 6.69% and 4.84%; the viability, T/C (compound 10 µM) was 5.09% and 5.85% and 4.19%. Besides, the concentration for half-maximal inhibition (IC50) (curve of compound) is 0.245 µM and 0.237 µM and 0.232 µM.

Consider `O=c1[nH]cc(F)c(=O)[nH]1`, for which the viability, T/C was 97.6% and 102% and 99.2% (compound 0.0316 µM); 94.3% and 91.8% and 102% (compound 0.1 µM); 127% and 111% and 106% (compound 0.316 µM); 59.1% and 63.2% and 70.3% (compound 1 µM); 39.4% (2×) and 42.5% (compound 3.16 µM); 30.5% and 32.8% and 30.7% (compound 10 µM). In addition, where the note is “curve of compound”, the IC50 is 1.54 µM and 1.75 µM and 2.14 µM.
